# Source: patent publication US20240116985A1, “STAPLED PEPTIDES AND METHODS THEREOF” (priority 2020, published 2024)
# Read-outs that look alike come from different tables or passages of the source.
# Assays:
# [1] = biological target: T1, full-length beta-Catenin (Uniprot ID P35222) (Homo sapiens, UniProt P35222); assay: Fluorescence polarization IC50 (beta-catenin / 5FAM-TCF4 10-53 competition); type: binding; settings: fluorescence polarization; read-out: beta-Catenin FP IC50
# T1 construct: 10 nM full-length beta-Catenin (Uniprot ID P35222)
# T1 sequence (P35222 1-781): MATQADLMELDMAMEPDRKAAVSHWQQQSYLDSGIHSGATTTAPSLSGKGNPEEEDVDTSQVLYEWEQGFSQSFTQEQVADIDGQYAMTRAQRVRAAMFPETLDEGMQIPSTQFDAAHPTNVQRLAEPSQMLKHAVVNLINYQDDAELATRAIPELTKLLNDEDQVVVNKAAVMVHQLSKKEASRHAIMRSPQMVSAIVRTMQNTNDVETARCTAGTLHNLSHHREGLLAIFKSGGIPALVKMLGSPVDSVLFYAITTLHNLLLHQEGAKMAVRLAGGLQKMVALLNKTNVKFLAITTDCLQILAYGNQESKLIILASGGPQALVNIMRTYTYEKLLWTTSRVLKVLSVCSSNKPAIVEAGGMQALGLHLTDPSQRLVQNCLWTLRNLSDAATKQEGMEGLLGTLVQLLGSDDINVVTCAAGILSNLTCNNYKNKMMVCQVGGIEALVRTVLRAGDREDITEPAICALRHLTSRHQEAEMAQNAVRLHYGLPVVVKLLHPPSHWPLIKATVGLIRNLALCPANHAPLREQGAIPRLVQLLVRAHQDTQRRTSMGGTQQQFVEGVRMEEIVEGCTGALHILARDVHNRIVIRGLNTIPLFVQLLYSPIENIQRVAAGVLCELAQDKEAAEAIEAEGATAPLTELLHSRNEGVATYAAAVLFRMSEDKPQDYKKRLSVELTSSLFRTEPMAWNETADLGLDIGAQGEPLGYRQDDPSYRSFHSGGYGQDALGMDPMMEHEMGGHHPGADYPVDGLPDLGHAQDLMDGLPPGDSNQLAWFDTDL
# [2] = biological target: T2, beta-catenin/TCF4 engagement (Homo sapiens, UniProt P35222); assay: Nano-BRET target engagement assay (B-cat-Halo & TCF4-Luc in HEK293 cells); type: cell-based; settings: read-out: NanoBRET Abs IC50
# T2 construct: expressed in transfected cells; host or cells: HEK293
# T2 sequence (P35222 1-781): T1 sequence (P35222 1-781)
SMILES,IC50 [1],IC50 [2],IC50 ([2]; absolute IC50)
"CC(=O)N1CCC[C@]12CC=CCCCC1(CCCC=CCCCOC(=O)N3CC[C@@](C(=O)N[C@@H](Cc4ccsc4)C(=O)N[C@@H](Cc4csc5ccccc45)C(=O)N[C@@H](C)C(N)=O)(C3)NC(=O)[C@H](CC(C)C)NC(=O)[C@H](Cc3ccccc3)NC(=O)[C@H](C)NC(=O)C(C)(C)NC(=O)[C@H](Cc3ccc(F)c(C(=O)O)c3)NC(=O)[C@H](CC(=O)O)NC1=O)NC(=O)[C@H](CC(C)(C)C)NC(=O)[C@H](CC(=O)O)NC2=O (stereo partly drawn) [I-2207, Ac-PL3-Asp-Npg-B5-Asp-4F3COOHF-Aib-Ala-Phe-Leu-PyrS2-3Thi-BztA-Ala-NH2]",16 nM,–,3.2 µM
"CC(=O)N1CCC[C@]12CC=CCCCC1(CCCC=CCCCOC(=O)N3CC[C@@](C(=O)N[C@@H](Cc4ccsc4)C(=O)N[C@@H](Cc4csc5ccccc45)C(=O)N[C@@H](CCC(N)=O)C(N)=O)(C3)NC(=O)[C@H](CC(C)C)NC(=O)[C@H](Cc3ccccc3)NC(=O)[C@H](C)NC(=O)[C@H](C)NC(=O)[C@H](Cc3cc(C(=O)O)cc(C(F)(F)F)c3)NC(=O)[C@H](CC(=O)O)NC1=O)NC(=O)[C@H](CC(C)(C)C)NC(=O)[C@H](CC(=O)O)NC2=O (stereo partly drawn) [I-2208, Ac-PL3-Asp-Npg-B5-Asp-5F3Me3COOHF-Ala-Ala-Phe-Leu-PyrS2-3Thi-BztA-Gln-NH2]",27 nM,–,5.7 µM
"CC(=O)N1CCC[C@]12CC=CCCCC1(CCCC=CCCCOC(=O)N3CC[C@@](C(=O)N[C@@H](Cc4ccsc4)C(=O)N[C@@H](Cc4csc5ccccc45)C(=O)N[C@@H](CO)C(N)=O)(C3)NC(=O)[C@H](CC(C)C)NC(=O)[C@H](Cc3ccccc3)NC(=O)[C@H](C)NC(=O)[C@H](C)NC(=O)[C@H](Cc3cc(C(=O)O)cc(C(F)(F)F)c3)NC(=O)[C@H](CC(=O)O)NC1=O)NC(=O)[C@H](CC(C)(C)C)NC(=O)[C@H](CC(=O)O)NC2=O (stereo partly drawn) [I-2209, Ac-PL3-Asp-Npg-B5-Asp-5F3Me3COOHF-Ala-Ala-Phe-Leu-PyrS2-3Thi-BztA-Ser-NH2]",50 nM,–,18.6 µM
"CC(=O)N1CCC[C@]12CC=CCCCC1(CCCC=CCCCOC(=O)N3CC[C@@](C(=O)N[C@@H](Cc4ccccc4Cl)C(=O)N[C@@H](Cc4csc5ccccc45)C(=O)N[C@@H](CO)C(N)=O)(C3)NC(=O)[C@H](CC(C)C)NC(=O)[C@H](Cc3ccccc3)NC(=O)[C@H](C)NC(=O)[C@H](C)NC(=O)[C@H](Cc3cc(C(=O)O)cc(C(F)(F)F)c3)NC(=O)[C@H](CC(=O)O)NC1=O)NC(=O)[C@H](CC(C)(C)C)NC(=O)[C@H](CC(=O)O)NC2=O (stereo partly drawn) [I-2210, Ac-PL3-Asp-Npg-B5-Asp-5F3Me3COOHF-Ala-Ala-Phe-Leu-PyrS2-2C1F-BztA-Ser-NH2]",128 nM,–,12.4 µM
"CC(=O)N1CCC[C@]12CC=CCCCC1(CCCC=CCCCOC(=O)N3CC[C@@](C(=O)N[C@@H](Cc4ccsc4)C(=O)N[C@@H](Cc4csc5ccccc45)C(=O)N[C@@H](C)C(N)=O)(C3)NC(=O)[C@H](CC(C)C)NC(=O)[C@H](Cc3ccccc3)NC(=O)[C@H](C)NC(=O)[C@H](CCC(N)=O)NC(=O)[C@H](Cc3cc(C(=O)O)cc(C(F)(F)F)c3)NC(=O)[C@H](CC(=O)O)NC1=O)NC(=O)[C@H](CC(C)(C)C)NC(=O)[C@H](CC(=O)O)NC2=O (stereo partly drawn) [I-2211, Ac-PL3-Asp-Npg-B5-Asp-5F3Me3COOHF-Gln-Ala-Phe-Leu-PyrS2-3Thi-BztA-Ala-NH2]",23 nM,–,12.9 µM
"CC(=O)N1CCC[C@]12CC=CCCCC1(CCCC=CCCCOC(=O)N3CC[C@@](C(=O)N[C@@H](Cc4ccccc4C(F)(F)F)C(=O)N[C@@H](Cc4ccc(Cl)c(Cl)c4)C(=O)N[C@@H](CO)C(N)=O)(C3)NC(=O)[C@H](CC(C)C)NC(=O)[C@H](Cc3ccccc3)NC(=O)[C@H](C)NC(=O)[C@H](C)NC(=O)[C@H](Cc3cccc(C(=O)O)c3)NC(=O)[C@H](CC(=O)O)NC1=O)NC(=O)[C@H](CC(C)(C)C)NC(=O)[C@H](CC(=O)O)NC2=O (stereo partly drawn) [I-2218, Ac-PL3-Asp-Npg-B5-Asp-3COOHF-Ala-Ala-Phe-Leu-PyrS2-2F3MeF-34C1F-Ser-NH2]",34 nM,–,5.1 µM
"CC(=O)N1CCC[C@]12CC=CCCCC1(CCCC=CCCCOC(=O)N3CC[C@@](C(=O)N[C@@H](Cc4ccccc4C(F)(F)F)C(=O)N[C@@H](Cc4ccc(Cl)c(Cl)c4)C(=O)N[C@@H](C)C(N)=O)(C3)NC(=O)[C@H](CC(C)C)NC(=O)[C@H](Cc3ccccc3)NC(=O)[C@H](C)NC(=O)[C@H](CCC(N)=O)NC(=O)[C@H](Cc3cccc(C(=O)O)c3)NC(=O)[C@H](CC(=O)O)NC1=O)NC(=O)[C@H](CC(C)(C)C)NC(=O)[C@H](CC(=O)O)NC2=O (stereo partly drawn) [I-2219, Ac-PL3-Asp-Npg-B5-Asp-3COOHF-Gln-Ala-Phe-Leu-PyrS2-2F3MeF-34C1F-Ala-NH2]",21 nM,–,2.7 µM

# Molecules with a lower IC50 [1], results first:
IC50 [1],IC50 [2],IC50 ([2]; absolute IC50),SMILES
12 nM,–,16.3 µM,"CC(=O)N1CCC[C@]12CC=CCCCC1(CCCC=CCCCOC(=O)N3CC[C@@](C(=O)N[C@@H](Cc4ccsc4)C(=O)N[C@@H](Cc4ccc(Cl)cc4)C(=O)N[C@@H](CCC(N)=O)C(N)=O)(C3)NC(=O)[C@H](CC(C)C)NC(=O)[C@H](Cc3ccccc3)NC(=O)[C@H](C)NC(=O)[C@H](C)NC(=O)[C@H](Cc3cccc(C(=O)O)c3)NC(=O)[C@H](CC(=O)O)NC1=O)NC(=O)[C@H](CC(C)(C)C)NC(=O)[C@H](CC(=O)O)NC2=O (stereo partly drawn) [I-2220, Ac-PL3-Asp-Npg-B5-Asp-3COOHF-Ala-Ala-Phe-Leu-PyrS2-3Thi-4C1F-Gln-NH2]"
7 nM,7.1 µM,–,"CC(=O)N1CCC[C@]12CC=CCCCC1(CCCC=CCCCOC(=O)N3CC[C@@](C(=O)N[C@@H](Cc4ccsc4)C(=O)N[C@@H](Cc4csc5ccccc45)C(=O)N[C@@H](C)C(N)=O)(C3)NC(=O)[C@H](CC(C)C)NC(=O)[C@H](Cc3ccccc3)NC(=O)[C@H](C)NC(=O)[C@H](CCC(N)=O)NC(=O)[C@H](Cc3ccc(F)c(C(=O)O)c3)NC(=O)[C@H](CC(=O)O)NC1=O)NC(=O)[C@H](CC(C)(C)C)NC(=O)[C@H](CC(=O)O)NC2=O (stereo partly drawn) [I-2206, Ac-PL3-Asp-Npg-B5-Asp-4F3COOHF-Gln-Ala-Phe-Leu-PyrS2-3Thi-BztA-Ala-NH2]"
7 nM,–,3.4 µM,"CC(=O)N1CCC[C@]12CC=CCCCC1(CCCC=CCCCOC(=O)N3CC[C@@](C(=O)N[C@@H](Cc4ccsc4)C(=O)N[C@@H](Cc4ccc(Cl)c(Cl)c4)C(=O)N[C@@H](CCC(N)=O)C(N)=O)(C3)NC(=O)[C@H](CC(C)C)NC(=O)[C@H](Cc3ccccc3)NC(=O)[C@H](C)NC(=O)[C@H](C)NC(=O)[C@H](Cc3cccc(C(=O)O)c3)NC(=O)[C@H](CC(=O)O)NC1=O)NC(=O)[C@H](CC(C)(C)C)NC(=O)[C@H](CC(=O)O)NC2=O (stereo partly drawn) [I-2216, Ac-PL3-Asp-Npg-B5-Asp-3COOHF-Ala-Ala-Phe-Leu-PyrS2-3Thi-34C1F-Gln-NH2]"
6 nM,–,2.1 µM,"CC(=O)N1CCC[C@]12CC=CCCCC1(CCCC=CCCCOC(=O)N3CC[C@@](C(=O)N[C@@H](Cc4ccsc4)C(=O)N[C@@H](Cc4ccc(Cl)c(Cl)c4)C(=O)N[C@@H](C)C(N)=O)(C3)NC(=O)[C@H](C(C)C)NC(=O)[C@H](Cc3ccccc3)NC(=O)[C@H](C)NC(=O)[C@H](CCC(N)=O)NC(=O)[C@H](Cc3cccc(C(=O)O)c3)NC(=O)[C@H](CC(=O)O)NC1=O)NC(=O)[C@H](CC(C)(C)C)NC(=O)[C@H](CC(=O)O)NC2=O (stereo partly drawn) [I-2217, Ac-PL3-Asp-Npg-B5-Asp-3COOHF-Gln-Ala-Phe-Val-PyrS2-3Thi-34C1F-Ala-NH2]"
